In this assay the test system is Human primary T cells. The assay can be described thus: IL-2 ELISA, Human Primary T Cell, Anti-CD3+CD28+ (Example 3). Particulars: anti-CD3+CD28 stimulation. The format is cell-based. A digest of the protocol: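 IL-2 was read by ELISA after stimulation on wells pre-coated with 1 ug/ml αCD3 and 5 μg/ml αCD28. Before this, 100,000 human primary T cells per well spent 1 h at 37 °C with test compound in Yssel's medium. The counter-screen replaced antibody stimulation with PMA (0.5 ng/ml final) and ionomycin (0.1 uM final).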
For orientation: ELISA stands for enzyme-linked immunosorbent assay.

63 compounds from US8993585B2, “Cyclic amine substituted pyrimidinediamines as PKC inhibitors” (Rigel Pharmaceuticals, Inc., priority 2007, dated 2015) can be followed below.

As for `COc1cc(Nc2ncc(Br)c(NC3CC(C)(C)N(C)C(C)(C)C3)n2)cc(OC)c1OC` [Compound I-276], half-maximal inhibition (24 hours) (IC50) was put at 1830 nM.
In turn, `CC(=O)N1CCN(c2ccc(Nc3ncc(F)c(NC4CC(C)(C)N(C)C(C)(C)C4)n3)cc2Cl)CC1` [Compound I-67] yielded a half-maximal inhibitory concentration (IC50) (24 hours) of 346 nM.
As for `COc1cc(Nc2ncc(F)c(NC3C[C@H](C)N(C)[C@@H](C)C3)n2)cc(-n2nnnc2C)c1` (stereo partly drawn) [IV-1, 5-Fluoro-N2-[3-methoxy-5-(5-methyl-tetrazol-1-yl)]phenyl-N4-(1,2,6,-trimethylpiperidin-4-yl)-2,4-pyrimidinediamine, trans isomer], the IC50 (Homo sapiens, T-cell, 24 h) turned out to be 176 nM.
`COc1cc(Cl)c(Nc2ncc(F)c(NC3CC(C)(C)N(C)C(C)(C)C3)n2)cc1OC` [Compound I-386]: it took 3210 nM to reach half-maximal inhibition (24 hours) (IC50).
Where the note is “Homo sapiens, T-cell, 24 h”, `CN(C)c1ccc(-c2ccc(Nc3ncc(F)c(NC4CC(C)(C)NC(C)(C)C4)n3)cc2C#N)cn1` [Compound I-428] registered a half-maximal inhibitory concentration (IC50) of 560 nM.
`CN1C(C)(C)CC(Nc2nc(Nc3ccc4c(c3)OC(C)(C)C(=O)N4)ncc2F)CC1(C)C` [II-33] showed an IC50 (24 hours) of 407 nM.
On to `COC(=O)/C=C/N1C(C)(C)CC(Nc2nc(Nc3ccc(OC)c(C(F)(F)F)c3)ncc2F)CC1(C)C` [Compound I-301], for which the concentration for half-maximal inhibition (IC50) (24 hours) worked out at 951 nM.
In the case of `COC(=O)CCN1C(C)(C)CC(Nc2nc(Nc3cc(Cl)cc(Cl)c3)ncc2F)CC1(C)C` [Compound I-294], the concentration for half-maximal inhibition (IC50) (Homo sapiens, T-cell, 24 h) is 4550 nM.
For `COc1ccc(Nc2ncc(F)c(NC3CCN(C)CC3)n2)cc1Cl` [III-1, N2-(3-Chloro-4-methoxy)phenyl-5-fluoro-N4-(1-methylpiperidin-4-yl)-2,4-pyrimidinediamine], inhibition (24 hours) was half-maximal at 2380 nM (IC50).
As to `CN1C(C)(C)CC(Nc2nc(Nc3ccc4[nH]ncc4c3)ncc2F)CC1(C)C` [II-38], the IC50 (Homo sapiens, T-cell, 24 h) is 827 nM.
The compound `CN1C(C)(C)CC(Nc2nc(Nc3ccc(S(=O)(=O)N4CCNCC4)c(Cl)c3)ncc2F)CC1(C)C` [Compound I-46] gave an IC50 (24 hours) of 14300 nM.
`CN1C(C)(C)CC(Nc2nc(Nc3ccc(-c4cc5ccccc5s4)c(C(F)(F)F)c3)ncc2F)CC1(C)C` [Compound I-114] gave a half-maximal inhibitory concentration (IC50) (24 hours) of 1880 nM.
Take `CN1C(C)(C)CC(Nc2nc(Nc3ccc(NCc4ccccc4)cn3)ncc2F)CC1(C)C` [II-85]: 3660 nM corresponded to half-maximal inhibition (Homo sapiens, T-cell, 24 h) (IC50).
`CN1C(C)(C)CC(Nc2nc(Nc3ccc(N4CCN(S(C)(=O)=O)CC4)c(C(F)(F)F)c3)ncc2[N+](=O)[O-])CC1(C)C` [Compound I-78] displayed a half-maximal inhibitory concentration (IC50) (24 hours) of 928 nM.
`CN1C(C)(C)CC(Nc2nc(Nc3cc(OCC(F)(F)F)cc(OCC(F)(F)F)c3)ncc2C(N)=O)CC1(C)C` [Compound I-406] returned a 50% inhibitory concentration (IC50) (24 hours) of 480 nM.
The same measure, in the same setting: the result for `COC(=O)C=CN1C(C)(C)CC(Nc2nc(Nc3cc(OC)cc(OC)c3)ncc2F)CC1(C)C` [Compound I-298] reads 1080 nM.
For the compound `Cc1ccc(C)n1-c1cc(Nc2ncc(F)c(NC3CC(C)(C)N(C)C(C)(C)C3)n2)ccc1OCCN1CCCC1` [Compound I-440], half-maximal inhibition (Homo sapiens, T-cell, 24 h) (IC50) required 520 nM.
Regarding `CC1(C)CC(Nc2nc(Nc3ccc(F)c(-n4cnnn4)c3)ncc2F)CC(C)(C)N1` [Compound I-467], the concentration for half-maximal inhibition (IC50) (24 hours) is 460 nM.
Regarding `CN1CCN(c2ccc(Nc3ncc(F)c(NC4CC(C)(C)N(C)C(C)(C)C4)n3)cc2CO)CC1` [Compound I-63], for the setting “24 hours”, the IC50 is 1850 nM.
Same read-out and setting: the result for `CCOC(=O)c1cnc(Nc2ccc(OC)c(Cl)c2)nc1NC1CC(C)(C)N(C)C(C)(C)C1` [Compound I-80] reads 2690 nM; that for `CN1C(C)(C)CC(Nc2nc(Nc3cc(-c4ccncc4)cc(C(F)(F)F)c3)ncc2F)CC1(C)C` [Compound I-201], 522 nM.
The same measure, in the same setting: to `CN1C(C)(C)CC(Nc2nc(Nc3ccc(NC(=O)c4ccco4)c(C(F)(F)F)c3)ncc2F)CC1(C)C` [Compound I-355] belongs 893 nM.
`Cc1ccc(Nc2ncc(C(F)(F)F)c(NC3CC(C)(C)N(C)C(C)(C)C3)n2)cc1C#N` [Compound I-171] displayed a 50% inhibitory concentration (IC50) (24 hours) of 680 nM.
In the case of `CN1C(C)(C)CC(Nc2nc(Nc3cccc(OC(F)(F)F)c3)ncc2Cl)CC1(C)C` [Compound I-240], 683 nM corresponded to half-maximal inhibition (Homo sapiens, T-cell, 24 h) (IC50).
Regarding `CC(C)N1C(=O)C(C)(C)Oc2cc(Nc3ncc(C#N)c(NC4CC(C)(C)NC(C)(C)C4)n3)ccc21` [II-75], the IC50 (24 hours) stood at 476 nM.
With `CN1C(C)(C)CC(Nc2nc(Nc3ccc(-n4cnnn4)cc3)ncc2F)CC1(C)C` [Compound I-400], half-maximal inhibition (24 hours) (IC50) required 1690 nM.
In the case of `CN1CCC(c2ccc(Nc3ncc(F)c(NC4CC(C)(C)N(C)C(C)(C)C4)n3)cc2)CC1` [Compound I-221], under “24 hours”, the midpoint of inhibition, the IC50, lay at 1270 nM.
As to `CN1C(C)(C)CC(Nc2nc(Nc3nc(C#N)c(C#N)[nH]3)ncc2F)CC1(C)C` [II-22], the IC50 (Homo sapiens, T-cell, 24 h) stood at 37300 nM.
`CN1C(C)(C)CC(Nc2nc(Nc3ccc(Br)cc3)ncc2F)CC1(C)C` [Compound I-108] had an IC50 (24 hours) of 1150 nM.
On to `CN1CCN(c2ccc(Nc3ncc(F)c(NC4CC(C)(C)NC(C)(C)C4)n3)cc2Cl)CC1` [Compound I-256], for which the midpoint of inhibition (24 hours), the IC50, lay at 246 nM.
On to `Cc1ccc(Nc2ncc(F)c(NC3CCC(C)(C)N(C)C(C)(C)C3)n2)cc1C#N` (stereo not drawn) [Compound I-263, 5-Fluoro-N2-[4-(methyl)-3-cyano]phenyl-N4-(1,2,2,7,7-pentamethylazepan-4-yl)-2,4-pyrimidinediamine], for which, for the setting “24 hours”, the IC50 was found to be 10900 nM.
In the case of `CN1C(C)(C)CC(Nc2nc(Nc3cccc(-c4cccnc4)c3)ncc2F)CC1(C)C` [Compound I-107], the IC50 (24 hours) is 750 nM.
For the setting “Homo sapiens, T-cell, 24 h”, `CN1C(=O)C(F)(F)Oc2cc(Nc3ncc(F)c(NC4CC(C)(C)N(C)C(C)(C)C4)n3)cnc21` [II-26] yielded an IC50 of 951 nM.
In the case of `CSc1nnnn1-c1cccc(Nc2ncc(C#N)c(NC3CC(C)(C)N(C)C(C)(C)C3)n2)c1` [Compound I-464], the IC50 (24 hours) was 180 nM.
For the setting “24 hours”, `CN1C(C)(C)CC(Nc2nc(Nc3cccc(O)c3)ncc2F)CC1(C)C` [Compound I-327] yielded an IC50 of 5080 nM.
For the setting “24 hours”, `CCc1cc(Nc2ncc(F)c(NC3CC(C)(C)N(C)C(C)(C)C3)n2)cc(C#N)c1Cl` [Compound I-128] displayed an IC50 of 876 nM.
As to `CN1C(C)(C)CC(Nc2nc(Nc3ccc(N4CCCCC4)c(C(F)(F)F)c3)ncc2F)CC1(C)C` [Compound I-233], the IC50 (24 hours) was found to be 1600 nM.
Under “24 hours”, `CN1C(C)(C)CC(Nc2nc(Nc3cnc(N4CCN(S(C)(=O)=O)CC4)c(Cl)c3)ncc2F)CC1(C)C` [Compound I-289] gave an IC50 of 424 nM.
On to `COc1cc(Nc2ncc(C(N)=O)c(NC3CC(C)(C)N(C)C(C)(C)C3)n2)cc(-n2cnnn2)c1` [Compound I-390], for which the IC50 (24 hours) is 680 nM.
As to `CN1C(C)(C)CC(Nc2nc(Nc3ccc4c(c3)OC(C)(C)C(=O)N4CCF)ncc2F)CC1(C)C` [II-80], where the note is “Homo sapiens, T-cell, 24 h”, the 50% inhibitory concentration (IC50) turned out to be 199 nM.
The compound `Cc1ccc(Nc2ncc(F)c(NC3CC(C)(C)N(C)C(C)(C)C3)n2)cc1-c1cc2ccccc2s1` [Compound I-189] showed an IC50 (24 hours) of 1220 nM.
As to `CN1C(C)(C)CC(Nc2nc(Nc3nc(-c4cccnc4)cs3)ncc2F)CC1(C)C` [II-136], the IC50 (Homo sapiens, T-cell, 24 h) stood at 910 nM.
The compound `CN1C(C)(C)CC(Nc2nc(Nc3ccc(OC(F)(F)F)c(-c4cc5ccccc5s4)c3)ncc2F)CC1(C)C` [Compound I-211] yielded an IC50 (24 hours) of 1700 nM.
The compound `COc1cc(Nc2ncc(OC)c(NC3CC(C)(C)N(C)C(C)(C)C3)n2)cc(OC)c1` [Compound I-423] displayed an IC50 (Homo sapiens, T-cell, 24 h) of 3500 nM.
For `COc1cc(Nc2ncc(F)c(NC3CC(C)(C)NC(C)(C)C3)n2)cc(-n2cnnn2)c1` [Compound I-388], half-maximal inhibition (24 hours) (IC50) was put at 110 nM.
Regarding `COc1cc(Nc2ncc(Cl)c(NC3CC(C)(C)N(C)C(C)(C)C3)n2)ccc1NC(=O)c1ccco1` [Compound I-352], the half-inhibitory concentration (IC50) (24 hours) amounted to 1070 nM.
Consider `COc1cc(Nc2ncc(F)c(N(Cc3cc4c(cc3Br)OCO4)C3CC(C)(C)N(C)C(C)(C)C3)n2)cc(OC)c1` [Compound I-323], for which the 50% inhibitory concentration (IC50) (Homo sapiens, T-cell, 24 h) amounted to 4710 nM.
With `COc1cc(Nc2ncc(OC)c(NC3CC(C)(C)N(C)C(C)(C)C3)n2)cc(-n2nnnc2C)c1` [Compound I-424], the IC50 (Homo sapiens, T-cell, 24 h) was found to be 1010 nM.
Same read-out and setting: to `COc1cc(Nc2ncc(F)c(N(Cc3ccccc3)C3CC(C)(C)N(C)C(C)(C)C3)n2)cc(OC)c1` [Compound I-308] belongs 809 nM.
On to `CN1C(C)(C)CC(Nc2nc(Nc3ccc(-c4cnn(C)c4)c(F)c3)ncc2F)CC1(C)C` [Compound I-150], for which the midpoint of inhibition (24 hours), the IC50, lay at 701 nM.
In turn, `CN1C(C)(C)CC(Nc2nc(Nc3cc(Cl)cc(Cl)c3)ncc2F)C1(C)C` (stereo not drawn) [Compound I-279, 5-Fluoro-N2-(3,5-dichloro) phenyl-N4-(1,2,2,5,5-pentamethylpyrrolidin-3-yl)-2,4-pyrimidinediamine] displayed an IC50 (24 hours) of 7440 nM.
With `COc1cc(C)c(Nc2ncc(F)c(NC3CC(C)(C)N(C)C(C)(C)C3)n2)cc1OC` [Compound I-380], for the setting “24 hours”, half-maximal inhibition (IC50) was put at 19500 nM.
With `CN1C(C)(C)CC(Nc2nc(Nc3ccc(N4CCOCC4)c(C(F)(F)F)c3)ncc2C(F)(F)F)CC1(C)C` [Compound I-330], inhibition (24 hours) was half-maximal at 1120 nM (IC50).
On to `CN1CCN(C(=O)C2COc3cc(Nc4ncc(F)c(NC5CC(C)(C)N(C)C(C)(C)C5)n4)ccc3O2)CC1` (stereo not drawn) [II-158], for which the IC50 (Homo sapiens, T-cell, 24 h) is 7200 nM.
Turning to `CCN1C(=O)C(C)(C)Sc2cc(Nc3ncc(F)c(NC4CC(C)(C)N(C)C(C)(C)C4)n3)ccc21` [II-63], 77.2 nM corresponded to half-maximal inhibition (Homo sapiens, T-cell, 24 h) (IC50).
With `CN1C(C)(C)CC(Nc2nc(Nc3ccc(F)c(-c4ccncc4)c3)ncc2F)CC1(C)C` [Compound I-191], under “24 hours”, the IC50 turned out to be 700 nM.
Where the note is “24 hours”, `CN1C(C)(C)CC(Nc2nc(Nc3ccc(F)c(Cl)c3)ncc2F)CC1(C)C` [Compound I-333] yielded an IC50 of 586 nM.
In turn, `COc1cc(Nc2ncc(C(N)=O)c(NC3CC(C)(C)NC(C)(C)C3)n2)cc(-n2nnnc2C)c1` [Compound I-387] gave an IC50 (24 hours) of 3470 nM.
`CN1C(C)(C)CC(N(Cc2ccc3ccccc3n2)c2nc(Nc3ccc4c(c3)OCCO4)ncc2F)CC1(C)C` [II-89]: for the setting “Homo sapiens, T-cell, 24 h”, the 50% inhibitory concentration (IC50) is 7670 nM.
Compound `CSc1nnnn1-c1cccc(Nc2ncc(F)c(NC3CC(C)(C)N(C)C(C)(C)C3)n2)c1` [Compound I-399] registered an IC50 (24 hours) of 50 nM.
Take `CN1C(C)(C)CC(Nc2nc(Nc3cc4c(cc3Br)OC(F)(F)O4)ncc2F)CC1(C)C` [II-122]: the midpoint of inhibition (Homo sapiens, T-cell, 24 h), the IC50, lay at 2160 nM.
As for `CN1C(C)(C)CC(Nc2nc(Nc3ccc4c(c3)OC(C)(C)O4)ncc2F)CC1(C)C` [II-103], 3690 nM corresponded to half-maximal inhibition (Homo sapiens, T-cell, 24 h) (IC50).
With `CC(C)OC(=O)COc1ccc(Nc2ncc(F)c(NC3CC(C)(C)N(C)C(C)(C)C3)n2)cc1` [Compound I-135], inhibition (24 hours) was half-maximal at 4640 nM (IC50).

In general, IC50 refers to the concentration at which inhibition is half-maximal. A high value points to weaker potency in that assay.
